Measured values taken from patent US10105437B2, “Epitopes related to coeliac disease” (BTG International Limited, priority 2004, dated 2018).

Tested on: PBMC from HLA-DQ2+ subjects
Experiment: Interferon gamma ELISPOT, initial gliadin epitope screening library
Type: cell-based, human
Details: 15 HLA-DQ2+ subjects, deamidated 20mers
From the text: In initial experiments involving 29 HLA-DQ2+ individuals with coeliac disease on long-term gluten free diet, interferon-gamma ELISPOT assays were used to screen a previous Pepset (described in WO 03/104273, which is incorporated herein by reference) initially as pools of peptides and then in 15 subjects as individual peptides with and without deamidation by tTG. This Pepset library consisted of 652 20mer gliadin peptides spanning all unique 12mers contained within all Genbank entries described as wheat gliadins found in September 2001. This Pepset library was designed “manually” from gene-derived protein sequences aligned using ClustalW software (MegAlign) arranged into phylogenetic groupings.
Approximately 0.6 micromole of each of 652 of the 20mers was provided. Two marker 20mer peptides were included in each set of 96 ([…]—peptide 161 (SEQ ID NO: 1931), and […] (SEQ ID NO: 1932)) and were characterized by reverse phase-HPLC and amino acid sequence analysis. Average purities of these marker peptides were 19% and 50%, respectively. Peptides were initially dissolved in acetonitrile (10%) and Hepes 100 mM to 10 mg/ml. The final concentration of individual peptides incubated with PBMC for the IFNγ ELISpot assays was 20 mcg/ml. These peptides were deamidated by incubation with guinea pig tissue tTG (Sigma T5398) in the ratio 100:32 mcg/ml for two hours at 37° C. […]

PQPFPPQLPYPQPQLPYPQP (Description of Artificial Sequence: Synthetic gliadin peptide) [Peptide 91]
potency rank in library: most potent gliadin 20mer
